Reference: PubChem BioAssay AID248 (DTP/NCI, 2004)
Several values for one entry are separate records, joined by “and”; a condition that tells them apart may be missing. Equal values may be shown once. Toxic doses and inconclusive results are not listed. Rule as the data show it: active = T/C of 150% or more; inactive = T/C below 125%.

System: L1210 leukemia ip in BDF1 mice, survival T/C
Test: NCI In Vivo Anticancer Drug Screen. Data for tumor model L1210 Leukemia (intraperitoneal) in B6D2F1 (BDF1) mice
Conditions: endpoint: mean survival time, higher = longer survival
Summary of the method: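 Read-out is survival time, reported as the treated-group measurement over the vehicle-control measurement.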

[1] = dose: 12.0 mg/kg/injection, schedule: Q01DX009 (ip), vehicle: Klucel (hydroxypropylcellulose) (HPC)
[2] = dose: 25.0 mg/kg/injection, schedule: Q01DX009 (ip), vehicle: Klucel (hydroxypropylcellulose) (HPC)
[3] = dose: 50.0 mg/kg/injection, schedule: Q01DX009 (ip), vehicle: Klucel (hydroxypropylcellulose) (HPC)
[4] = dose: 100.0 mg/kg/injection, schedule: Q04DX003 (ip), vehicle: saline
[5] = dose: 200.0 mg/kg/injection, schedule: Q04DX003 (ip), vehicle: saline
[6] = dose: 400.0 mg/kg/injection, schedule: Q04DX003 (ip), vehicle: saline
[7] = dose: 100.0 mg/kg/injection, schedule: Q01DX009 (ip), vehicle: Klucel (hydroxypropylcellulose) (HPC)
[8] = dose: 200.0 mg/kg/injection, schedule: Q01DX009 (ip), vehicle: Klucel (hydroxypropylcellulose) (HPC)
[9] = dose: 100.0 mg/kg/injection, schedule: Q01DX001 (ip), vehicle: saline
[10] = dose: 200.0 mg/kg/injection, schedule: Q01DX001 (ip), vehicle: saline
[11] = dose: 400.0 mg/kg/injection, schedule: Q01DX001 (ip), vehicle: saline
[12] = dose: 100.0 mg/kg/injection, schedule: Q04DX003 (ip), vehicle: Klucel (hydroxypropylcellulose) (HPC)
[13] = dose: 200.0 mg/kg/injection, schedule: Q01DX001 (ip), vehicle: carboxymethylcellulose (CMC)

Measured: T/C

Fc1nc(F)nc(F)n1
inactive: [1] 89 % of control | [2] 94 % of control | [3] 112 % of control | [4] 90 % of control | [5] 100 % of control | [6] 102 % of control

N=C([Se])c1cn(C2OC(CO)C(O)C2O)c2ncnc(N)c12 (stereo unspecified)
inactive: dose: 0.09 mg/kg/injection, schedule: Q01DX009 (ip), vehicle: saline 109 % of control | dose: 0.19 mg/kg/injection, schedule: Q01DX005 (ip), vehicle: saline 119 % of control | dose: 0.19 mg/kg/injection, schedule: Q01DX009 (ip), vehicle: saline 108 % of control | dose: 0.39 mg/kg/injection, schedule: Q01DX005 (ip), vehicle: saline 117 % of control | dose: 0.39 mg/kg/injection, schedule: Q01DX009 (ip), vehicle: saline 104 % of control | dose: 0.78 mg/kg/injection, schedule: Q01DX005 (ip), vehicle: saline 106 % of control

C=C1N2CCC(CC2)C1(O)c1ccccc1 (stereo unspecified)
inactive: dose: 3.13 mg/kg/injection, schedule: Q04DX003 (ip), vehicle: saline 92 % of control | dose: 6.25 mg/kg/injection, schedule: Q04DX003 (ip), vehicle: saline 103 % of control | dose: 12.5 mg/kg/injection, schedule: Q04DX003 (ip), vehicle: Klucel (hydroxypropylcellulose) (HPC) 103 % of control | dose: 12.5 mg/kg/injection, schedule: Q04DX003 (ip), vehicle: saline 97 % of control

CC(=O)OC1CC(n2cc(C)c(=O)[nH]c2=O)OC1CO (stereo unspecified)
inactive: dose: 100.0 mg/kg/injection, schedule: Q01DX005 (ip), vehicle: saline 112 % of control | dose: 200.0 mg/kg/injection, schedule: Q01DX005 (ip), vehicle: saline 109 % of control

Cc1ccc(NC(=O)Nc2cccc(F)c2)cc1C
inactive: [7] 94 % of control | [8] 97 % of control | dose: 400.0 mg/kg/injection, schedule: Q01DX009 (ip), vehicle: Klucel (hydroxypropylcellulose) (HPC) 95 % of control

O=C(Cn1cc(F)c(=O)[nH]c1=O)c1cccs1
inactive: dose: 100.0 mg/kg/injection, schedule: Q01DX009 (ip), vehicle: saline 89 % of control | [4] 100 % of control | dose: 200.0 mg/kg/injection, schedule: Q01DX009 (ip), vehicle: saline 89 % of control | [5] 106 % of control | dose: 400.0 mg/kg/injection, schedule: Q01DX009 (ip), vehicle: saline 89 % of control | [6] 111 % of control

O=C(O)CC1CCC(CC(=O)O)CC1 (stereo unspecified)
inactive: dose: 100.0 mg/kg/injection, schedule: Q04DX003 (ip), vehicle: saline with Tween-80 92 % of control | dose: 200.0 mg/kg/injection, schedule: Q04DX003 (ip), vehicle: saline with Tween-80 89 % of control | dose: 400.0 mg/kg/injection, schedule: Q04DX003 (ip), vehicle: saline with Tween-80 94 % of control

Cc1ccc(C(=O)c2ccc([N+](=O)[O-])cc2)cc1
inactive: dose: 50.0 mg/kg/injection, schedule: Q01DX001 (ip), vehicle: saline 103 % of control | [9] 101 % of control | [10] 92 % of control | [11] 114 % of control

CC(C)C(NC(=O)OC(C)(C)C)C(=O)O (stereo unspecified)
inactive: dose: 12.5 mg/kg/injection, schedule: Q01DX009 (ip), vehicle: alcohol 106 % of control | dose: 25.0 mg/kg/injection, schedule: Q01DX009 (ip), vehicle: alcohol 109 % of control | dose: 25.0 mg/kg/injection, schedule: Q04DX003 (ip), vehicle: other 107 % of control | dose: 50.0 mg/kg/injection, schedule: Q01DX009 (ip), vehicle: alcohol 96 % of control | dose: 50.0 mg/kg/injection, schedule: Q04DX003 (ip), vehicle: other 93 % of control and 108 % of control | [9] 103 % of control | dose: 100.0 mg/kg/injection, schedule: Q01DX009 (ip), vehicle: alcohol 104 % of control | dose: 100.0 mg/kg/injection, schedule: Q04DX003 (ip), vehicle: other 94 % of control and 96 % of control | dose: 200.0 mg/kg/injection, schedule: Q01DX009 (ip), vehicle: alcohol 107 % of control | dose: 200.0 mg/kg/injection, schedule: Q04DX003 (ip), vehicle: other 101 % of control and 103 % of control

CCCCCCCCCCCCCCCCN(C(C)C)S(=O)(=O)c1ccc(Cl)c([N+](=O)[O-])c1
inactive: dose: 100.0 mg/kg/injection, schedule: Q01DX009 (ip), vehicle: saline sonified 106 % of control | [12] 91 % of control | dose: 200.0 mg/kg/injection, schedule: Q01DX009 (ip), vehicle: saline sonified 96 % of control | dose: 200.0 mg/kg/injection, schedule: Q04DX003 (ip), vehicle: Klucel (hydroxypropylcellulose) (HPC) 94 % of control | dose: 400.0 mg/kg/injection, schedule: Q01DX009 (ip), vehicle: saline sonified 89 % of control | dose: 400.0 mg/kg/injection, schedule: Q04DX003 (ip), vehicle: Klucel (hydroxypropylcellulose) (HPC) 93 % of control

COc1cc(N=O)ccc1O
inactive: [3] 106 % of control | [7] 103 % of control | [8] 100 % of control

C1=Cc2ccccc2Sc2ccccc21
inactive: dose: 50.0 mg/kg/injection, schedule: Q01DX001 (ip), vehicle: carboxymethylcellulose (CMC) 98 % of control | [13] 98 % of control

CC(C)(C)C1(C)CNC(=O)O1 (stereo unspecified)
inactive: dose: 6.0 mg/kg/injection, schedule: Q01DX009 (ip), vehicle: Klucel (hydroxypropylcellulose) (HPC) 100 % of control | [1] 104 % of control | [2] 102 % of control | dose: 25.0 mg/kg/injection, schedule: Q04DX003 (ip), vehicle: Klucel (hydroxypropylcellulose) (HPC) 102 % of control | [3] 101 % of control | dose: 50.0 mg/kg/injection, schedule: Q04DX003 (ip), vehicle: Klucel (hydroxypropylcellulose) (HPC) 102 % of control | [7] 101 % of control | [12] 95 % of control and 89 % of control

CC(C)CNCc1cc([N+](=O)[O-])ccc1O
inactive: dose: 75.0 mg/kg/injection, schedule: Q01DX001 (ip), vehicle: saline 100 % of control | dose: 150.0 mg/kg/injection, schedule: Q01DX001 (ip), vehicle: saline 97 % of control | dose: 300.0 mg/kg/injection, schedule: Q01DX001 (ip), vehicle: saline 94 % of control

CN(Cc1c(S)ccc2ccccc12)Cc1c(S)ccc2ccccc12
inactive: [9] 94 % of control | [10] 98 % of control | [11] 96 % of control

O=C(NC(Cc1ccccc1)C(=O)CCl)OCc1ccccc1 (stereo unspecified)
inactive: dose: 25.0 mg/kg/injection, schedule: Q01DX009 (ip), vehicle: saline with Tween-80 115 % of control | dose: 25.0 mg/kg/injection, schedule: Q04DX002 (ip), vehicle: other 107 % of control | dose: 50.0 mg/kg/injection, schedule: Q01DX009 (ip), vehicle: saline with Tween-80 95 % of control | dose: 50.0 mg/kg/injection, schedule: Q04DX002 (ip), vehicle: other 93 % of control | dose: 100.0 mg/kg/injection, schedule: Q04DX002 (ip), vehicle: other 104 % of control | dose: 100.0 mg/kg/injection, schedule: Q04DX003 (ip), vehicle: saline sonified 108 % of control

COc1cc(NC(=O)Nc2ccccc2Cl)c(OC)cc1Cl
inactive: dose: 100.0 mg/kg/injection, schedule: Q04DX002 (ip), vehicle: saline with Tween-80 93 % of control

Cc1ccc(Cl)cc1NC(=O)Oc1cc(C)c(Cl)c(C)c1
inactive: [7] 94 % of control | [8] 96 % of control

COc1cc([N+](=O)[O-])ccc1NC(=O)c1ccccc1
inactive: dose: 100.0 mg/kg/injection, schedule: Q01DX001 (ip), vehicle: carboxymethylcellulose (CMC) 99 % of control | [13] 101 % of control | dose: 400.0 mg/kg/injection, schedule: Q01DX001 (ip), vehicle: carboxymethylcellulose (CMC) 97 % of control

CN=C(NC)c1ccc(NC(=O)c2cc(C)cc(C(=O)Nc3ccc(C(=NC)NC)cc3)c2)cc1
inactive: dose: 1.88 mg/kg/injection, schedule: Q01DX Z (ip), vehicle: saline 89 % of control | dose: 3.75 mg/kg/injection, schedule: Q01DX Z (ip), vehicle: saline 91 % of control | dose: 7.5 mg/kg/injection, schedule: Q01DX Z (ip), vehicle: saline 91 % of control | dose: 15.0 mg/kg/injection, schedule: Q01DX Z (ip), vehicle: saline 98 % of control and 107 % of control | dose: 30.0 mg/kg/injection, schedule: Q01DX Z (ip), vehicle: saline 101 % of control
